Test results: patent US20260285866A1, “MODULATORS OF TRPML, THEIR COMPOSITIONS AND METHODS OF USE” (Caraway Therapeutics, Inc., priority 2024, published 2026)

Tests used:
Type in all cases: cell-based
Human TRPML1 = Human TRPML1 (Homo sapiens, UniProt Q9GZU1, L15A/L16A/L577A/L578A); assay: Fluorescent TRPML1 assay (Fluo4-AM, HEK-293 Trex cells expressing hTRPML1); details: fluorescent calcium assay, doxycycline-induced hTRPML1
Protocol: Example 27. Fluorescent TRPML Assays
(§1) HEK-293 Trex cells were stably transfected with a construct consisting of the human coding sequence for TRPML1 cloned into the tet-inducible plasmid pCDNA5 T/O. Mutations were introduced into the TRPML1 sequence to facilitate expression on the cell surface (Silvia Vergarajauregui, Rosa Puertollano Traffic. 2006 March; 7(3): 337-353). Briefly, the cells are cultured in 150 mm round tissue culture dishes containing 20 mL of media. The day before the assay the cells are rinsed with DPBS-Ca-Mg and then treated briefly with Trypsin-EDTA. The Trypsin-EDTA is diluted with growth media, and cells are counted. 38×10^6 cells are re-plated into 150 mm round tissue culture dishes in media containing 0.5 μg/mL doxycycline to induce expression of hTRPML1.
(§2) The day of the experiment cells are lifted from the plates as above and collected by centrifugation. The cells are then suspended in dye loading buffer consisting of Ringer's solution supplemented with 0.1% Pluronic Acid and 1 micromolar Fluo4-AM dye. Cells are loaded for ~60 minutes in the dark with occasional mixing. The cells are collected by centrifugation, the loading media aspirated, and the cells resuspended in 25 mL Ringer's solution and incubated ~60 minutes in the dark. The cells are again collected by centrifugation, rinsed in Ringer's Solution and resuspended to 0.2×10^6 cells/mL in modified Ringer's solution containing 10 mM calcium.
(§3) Compounds are dissolved to a concentration of 10 millimolar with DMSO. Compound plates are created by dispensing compounds into 384 well black wall clear bottom plates (Greiner 781091). Positive and negative controls are included on each plate. Typically, different amounts of each compound are tested ranging from 100 nanoMoles (20 micromolar final concentration) decreasing in half-log steps to 31 picoMoles (6 nanomolar final concentration). Each concentration is typically tested in triplicate.
(§4) 50 microliters of dye-loaded cells are dispensed into each well of the compound assay plate created above. The fluorescence in each well is then determined with an excitation wavelength of 480 nm and an emission wavelength of 540 nm using either a Molecular Devices SpectraMax multimode plate reader or a Hamamatsu FDSS/uCell plate imager.
(§5) The resulting fluorescence for each well is exported as an ascii file and loaded into our LIMS for analysis. The percent activity of each compound at each concentration is determined by comparison to the positive and negative control wells included in each plate.
(§6) EC50 values were calculated using a non-linear regression of Prism. In the table, “A” indicates an EC50 of less than 100 nM, “B” indicates an EC50 range from 100 nM to 500 nM: “C” indicates an EC50 range from 500 nM to 2 μM; and “D” indicates an EC50 greater than 2 μM.

Human TRPML3 = biological target: T1, Human TRPML3 (Homo sapiens, UniProt Q8TDD5); assay: Fluorescent TRPML3 assay (as for TRPML1); details: fluorescent calcium assay as for TRPML1, TRPML3 subtype
T1 construct: expressed in transfected cells
T1 sequence (Q8TDD5 1-553): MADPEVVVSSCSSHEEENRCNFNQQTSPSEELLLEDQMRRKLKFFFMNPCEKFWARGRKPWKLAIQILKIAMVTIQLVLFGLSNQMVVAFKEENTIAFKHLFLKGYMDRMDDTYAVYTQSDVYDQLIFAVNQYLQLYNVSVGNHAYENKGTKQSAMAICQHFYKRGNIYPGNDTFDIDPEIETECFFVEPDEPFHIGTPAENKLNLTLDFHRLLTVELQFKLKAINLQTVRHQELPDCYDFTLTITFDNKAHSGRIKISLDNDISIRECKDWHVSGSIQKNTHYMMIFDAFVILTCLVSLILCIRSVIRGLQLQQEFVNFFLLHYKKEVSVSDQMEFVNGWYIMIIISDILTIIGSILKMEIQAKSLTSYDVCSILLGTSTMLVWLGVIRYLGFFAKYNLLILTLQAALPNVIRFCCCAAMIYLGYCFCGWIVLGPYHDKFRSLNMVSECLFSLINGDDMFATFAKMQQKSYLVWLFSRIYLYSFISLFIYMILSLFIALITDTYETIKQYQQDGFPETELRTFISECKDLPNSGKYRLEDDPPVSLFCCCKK
Protocol: as §1, §2, §3, §4, §5
(§7) Assays for TRPML2 and TRPML3 were performed as above for TRPML1, by substituting the appropriate TRPML2 or TRPML3 subtype for the TRPML1.
as §6

Human TRPML2 = biological target: T2, Human TRPML2 (Homo sapiens, UniProt Q8IZK6); assay: Fluorescent TRPML2 assay (as for TRPML1); details: fluorescent calcium assay as for TRPML1, TRPML2 subtype
T2 construct: expressed in transfected cells
T2 sequence (Q8IZK6 1-566): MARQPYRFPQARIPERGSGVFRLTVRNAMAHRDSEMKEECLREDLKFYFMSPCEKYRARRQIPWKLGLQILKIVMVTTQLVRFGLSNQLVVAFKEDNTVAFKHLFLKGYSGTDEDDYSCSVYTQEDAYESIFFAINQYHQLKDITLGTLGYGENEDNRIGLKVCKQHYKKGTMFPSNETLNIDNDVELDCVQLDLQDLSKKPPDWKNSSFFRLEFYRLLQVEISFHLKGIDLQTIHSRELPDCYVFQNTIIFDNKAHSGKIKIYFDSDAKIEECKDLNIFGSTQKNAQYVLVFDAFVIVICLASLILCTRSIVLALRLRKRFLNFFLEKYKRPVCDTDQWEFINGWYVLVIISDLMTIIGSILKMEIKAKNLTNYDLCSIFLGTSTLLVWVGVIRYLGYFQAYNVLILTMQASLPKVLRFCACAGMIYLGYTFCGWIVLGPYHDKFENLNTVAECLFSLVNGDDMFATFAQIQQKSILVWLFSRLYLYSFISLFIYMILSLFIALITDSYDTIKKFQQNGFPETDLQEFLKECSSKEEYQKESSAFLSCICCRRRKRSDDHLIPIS
Protocol: as §1, §2, §3, §4, §5, §7, §6

Human TRPML1, sequence (Q9GZU1 whole entry L15A/L16A/L577A/L578A): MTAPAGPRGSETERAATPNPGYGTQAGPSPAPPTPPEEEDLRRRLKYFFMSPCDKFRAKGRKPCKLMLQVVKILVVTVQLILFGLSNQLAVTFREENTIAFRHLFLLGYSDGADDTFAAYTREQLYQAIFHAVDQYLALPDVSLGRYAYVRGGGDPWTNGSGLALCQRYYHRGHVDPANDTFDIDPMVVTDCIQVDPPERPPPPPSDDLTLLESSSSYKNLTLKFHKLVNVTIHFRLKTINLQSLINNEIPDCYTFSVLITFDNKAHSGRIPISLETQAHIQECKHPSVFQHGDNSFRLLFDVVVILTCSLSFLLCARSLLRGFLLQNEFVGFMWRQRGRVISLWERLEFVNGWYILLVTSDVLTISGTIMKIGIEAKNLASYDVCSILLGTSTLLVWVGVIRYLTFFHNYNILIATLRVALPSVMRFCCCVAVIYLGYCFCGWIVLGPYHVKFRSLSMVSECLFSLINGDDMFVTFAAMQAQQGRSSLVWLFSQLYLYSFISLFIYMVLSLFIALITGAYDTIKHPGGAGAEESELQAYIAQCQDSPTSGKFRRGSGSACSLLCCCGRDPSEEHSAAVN

EC50 (Human TRPML1) [µM]	EC50 (Human TRPML3) [µM]	EC50 (Human TRPML2) [µM]	SMILES
0.1 to 0.5	0.5 to 2	> 2	C[C@@H]1CN(c2ncnc3c2c(-c2ccncc2)cn3-c2cc(C#N)ccn2)[C@@H](C)CN1C(=O)C(C)(C)O [Compound 125, 2-(4-((2S,5R)-4-(2-hydroxy-2-methylpropanoyl)-2,5-dimethylpiperazin-1-yl)-5-(pyridin-4-yl)-7H-pyrrolo[2,3-d]pyrimidin-7-yl)isonicotinonitrile]
< 0.1	0.1 to 0.5	> 2	C[C@@H]1CN(c2ncnc3c2c(-c2ccccc2)cn3-c2cc(C#N)ccn2)[C@@H](C)CN1C(=O)C(O)(C(F)(F)F)C(F)(F)F [Compound 110, 2-(4-((2S,5R)-2,5-dimethyl-4-(3,3,3-trifluoro-2-hydroxy-2-(trifluoromethyl)propanoyl)piperazin-1-yl)-5-phenyl-7H-pyrrolo[2,3-d]pyrimidin-7-yl)isonicotinonitrile]
< 0.1	< 0.1	< 0.1	CCOC(C)(C)C(=O)N1C[C@H](C)N(c2ncnc3c2c(-c2ccccc2F)cn3-c2cc(C#N)ccn2)C[C@H]1C [Compound 164, 2-(4-((2S,5R)-4-(2-ethoxy-2-methylpropanoyl)-2,5-dimethylpiperazin-1-yl)-5-(2-fluorophenyl)-7H-pyrrolo[2,3-d]pyrimidin-7-yl)isonicotinonitrile]
< 0.1	< 0.1	0.1 to 0.5	CCOC(C)(C)C(=O)N1C[C@H](C)N(c2ncnc3c2c(-c2ccccc2)cn3-c2cc(C#N)ccn2)C[C@H]1C [Compound 170, 2-(4-((2S,5R)-4-(2-ethoxy-2-methylpropanoyl)-2,5-dimethylpiperazin-1-yl)-5-phenyl-7H-pyrrolo[2,3-d]pyrimidin-7-yl)isonicotinonitrile]
0.5 to 2	0.5 to 2	> 2	Cc1cnccc1-c1cn(-c2cc(C#N)ccn2)c2ncnc(N3C[C@@H](C)N(C(=O)C(C)(C)O)C[C@@H]3C)c12 [Compound 147, 2-(4-((2S,5R)-4-(2-hydroxy-2-methylpropanoyl)-2,5-dimethylpiperazin-1-yl)-5-(3-methylpyridin-4-yl)-7H-pyrrolo[2,3-d]pyrimidin-7-yl)isonicotinonitrile]
< 0.1	0.1 to 0.5	> 2	CC[C@H]1CN(C(=O)C(C)(C)O)[C@H](C)CN1c1ncnc2c1c(-c1ccccc1)cn2-c1cc(C#N)ccn1 [Compound 129, 2-(4-((2S,5R)-2-ethyl-4-(2-hydroxy-2-methylpropanoyl)-5-methylpiperazin-1-yl)-5-phenyl-7H-pyrrolo[2,3-d]pyrimidin-7-yl)isonicotinonitrile]
0.1 to 0.5	0.5 to 2	> 2	C[C@@H]1CN(c2ncnc3c2c(-c2ccccc2)cn3-c2cc(C#N)ccn2)[C@@H](C)CN1C(=O)C1(O)COC1 [Compound 120, 2-(4-((2S,5R)-4-(3-hydroxyoxetane-3-carbonyl)-2,5-dimethylpiperazin-1-yl)-5-phenyl-7H-pyrrolo[2,3-d]pyrimidin-7-yl)isonicotinonitrile]
< 0.1	< 0.1	0.5 to 2	C[C@@H]1CN(c2ncnc3c2c(-c2ccccc2F)cn3-c2cc(C#N)ccn2)[C@@H](C)CN1C(=O)C1(O)CCCCC1 [Compound 122, 2-(5-(2-fluorophenyl)-4-((2S,5R)-4-(1-hydroxycyclohexane-1-carbonyl)-2,5-dimethylpiperazin-1-yl)-7H-pyrrolo[2,3-d]pyrimidin-7-yl)isonicotinonitrile]
0.1 to 0.5	> 2		C[C@@H]1CN(c2ncnc3c2c(-c2cnco2)cn3-c2cc(C#N)ccn2)[C@@H](C)CN1C(=O)C(C)(C)O [Compound 127, 2-(4-((2S,5R)-4-(2-hydroxy-2-methylpropanoyl)-2,5-dimethylpiperazin-1-yl)-5-(oxazol-5-yl)-7H-pyrrolo[2,3-d]pyrimidin-7-yl)isonicotinonitrile]
0.5 to 2	0.5 to 2		CC(C)(O)C(=O)N1CCN(c2ncnc3c2c(-c2ccccc2)cn3-c2cc(C#N)ccn2)[C@@H](C2CC2)C1 [Compound 113]
0.5 to 2	> 2		C[C@H]1CN(c2ncnc3c2c(-c2ccccc2F)cn3-c2cc(C#N)ccn2)[C@@H](C)CN1C(=O)C(C)(C)O [Compound 169, 2-(5-(2-fluorophenyl)-4-((2S,5S)-4-(2-hydroxy-2-methylpropanoyl)-2,5-dimethylpiperazin-1-yl)-7H-pyrrolo[2,3-d]pyrimidin-7-yl)isonicotinonitrile]
> 2	> 2		C[C@@H]1CN(c2ncnc3c2c(-c2ccccc2F)cn3-c2cc(C#N)ccn2)[C@@H](C)CN1C(=O)C1(O)CCN(C)CC1 [Compound 123, 2-(5-(2-fluorophenyl)-4-((2S,5R)-4-(4-hydroxy-1-methylpiperidine-4-carbonyl)-2,5-dimethylpiperazin-1-yl)-7H-pyrrolo[2,3-d]pyrimidin-7-yl)isonicotinonitrile]
0.5 to 2	> 2		C[C@@H]1CN(c2ncnc3c2c(-c2cocn2)cn3-c2cc(C#N)ccn2)[C@@H](C)CN1C(=O)C(C)(C)O [Compound 126, 2-(4-((2S,5R)-4-(2-hydroxy-2-methylpropanoyl)-2,5-dimethylpiperazin-1-yl)-5-(oxazol-4-yl)-7H-pyrrolo[2,3-d]pyrimidin-7-yl)isonicotinonitrile]
0.5 to 2	> 2		C[C@@H]1CN(c2ncnc3c2c(-c2ccncc2)cn3-c2cc(F)ccn2)[C@@H](C)CN1C(=O)C(C)(C)O [Compound 136, 1-((2R,5S)-4-(7-(4-fluoropyridin-2-yl)-5-(pyridin-4-yl)-7H-pyrrolo[2,3-d]pyrimidin-4-yl)-2,5-dimethylpiperazin-1-yl)-2-hydroxy-2-methylpropan-1-one]
> 2	> 2		C[C@@H]1CN(c2ncnc3c2c(-c2ccccc2F)cn3-c2cc(C#N)ccn2)[C@@H](C)CN1C(=O)C1(O)CC1 [Compound 157, 2-(5-(2-fluorophenyl)-4-((2S,5R)-4-(1-hydroxycyclopropane-1-carbonyl)-2,5-dimethylpiperazin-1-yl)-7H-pyrrolo[2,3-d]pyrimidin-7-yl)isonicotinonitrile]
